This note sets out measurements from patent US20260284166A1, “NOVEL TUMOR ANTIGENS FOR MELANOMA AND USES THEREOF” (UNIVERSITÉ DE MONTRÉAL, priority 2023, published 2026).

Entries after “also recorded” stand apart in the source; their conditions may differ.

The subject of the test is CD8+ T cells from healthy donor PBMCs. Kind of test: Functional expansion of specific T cells (FEST) assay. Type of test: cell-based, human. The note with it: in vitro stimulation of healthy donor T cells with 1 μg/mL peptide, harvested day 20; TCR Vβ CDR3 sequencing of CD8+ cells. From the text:
aeTSA selection for Immunogenicity assay. Melanoma aeTSAs to be tested in T cell-based immunogenicity assays were selected based on the following criteria: 1) complete loss of expression (RPHM) on-therapy in at least one responder from the Riaz et al.^8 cohort capable to present the respective aeTSAs (at least one HLA allele with rank elution <2% in NetMHCpan4.1b^5), 2) elevated mean expression in TCGA-SKCM, 3) the HLA allotype presenting the aeTSA (HLA-A*02:01 or HLA-B*68:01 shared by the melanoma samples and PBMCs donors), 4) the aeTSA biotype (25% canonical, 75% non-canonical), 5) novel MAP status.
T cells were cultured as previously described^9, with minor modifications. Briefly, on day 0, thawed PBMCs from D36 (Miltenyi Biotec) were T cell-enriched using the Human Pan T cell isolation kit (Miltenyi Biotec). T cells were resuspended at 2×10^6/mL in AIM V media supplemented with 50 μg/mL gentamicin (ThermoFisher Scientific) and 1% HEPES. The T cell-negative fraction was irradiated at 30 Gγ, washed, and resuspended at 2×10^6/mL in AIM V media supplemented with 50 μg/mL gentamicin and 1% HEPES. 2.5 ml per well of both T cells and irradiated T cell-depleted cells were added to a 12-well plate, along with each peptide (GLS Biochem) (1 μg/mL final concentration) or without peptide. Cells were cultured for 10 days at 37° C., 5% CO2. On day 3 and 7, half the culture media was replaced with fresh culture media containing 100 IU/mL IL-2, 50 ng/mL IL-7, and 50 ng/mL IL-15 (day 3) and 200 IU/mL IL-2, 50 ng/mL IL-7, and 50 ng/mL IL-15 (day 7). On day 10, thawed PBMCs from the same donor were used to generate a new batch of T cell-depleted cells. These cells were irradiated at 30 Gγ and loaded with […] of relevant peptide or without peptide during 2 h at 37° C. These cells were washed and added to cultures at a 1:1 T cell:non-T cell ratio. […] On day 20, cells were harvested to perform FEST assays.
For FEST assays, CD8^+ cells were further isolated using the Human CD8^+ T Cell Isolation Kit (Miltenyi Biotec). […]

For GVDDLVFRR [SEQ ID NO: 64], the “Amino acid sequences of the CDR3 of the TCRβ chain of the clonotypes expanded” value (from here on “Amino acid sequences”) is “CASSPDPEGGEQYF; also recorded: CASSLQGHGYTF; also recorded: CASNVARTGGDISGDYEQYF; also recorded: CASSLGLAGSYEQYF; also recorded: CASSDSSYNSPLHF”.

As to HTLPALSRR [SEQ ID NO: 66], the “Amino acid sequences” value is “CASSFQGLNTEAFF (SEQ ID NO: 1103); also recorded: CASSPGQGNEKLFF (SEQ ID NO: 1104); also recorded: CASSLGSGYEQYF (SEQ ID NO: 1105); also recorded: CASSLGLYNEQFF (SEQ ID NO: 1106); also recorded: CASSPGTDYNEQFF (SEQ ID NO: 1107); also recorded: CATRPGAIRGYTF (SEQ ID NO: 1108); also recorded: CASSLIGGADTEAFF (SEQ ID NO: 1109)”.

For AAAGVSSTK [SEQ ID NO: 73], the “Amino acid sequences” value is recorded as “CASSPTNTYEQYF; also recorded: CASHPAGADMNTEAFF; also recorded: CASSLAGRETQYF; also recorded: CASSVWGEPYNEQFF; also recorded: CASSRTDSYEQYF; also recorded: CASSLQGANGYTF”.
